US20150183738A1, “3-N-BUTYL-1-ISOINDOLINONE AND USE THEREOF FOR PREVENTING OR TREATING CEREBRAL INFARCTION” (SUN YAT-SEN UNIVERSITY, priority 2012, published 2015)
Entries after “also recorded” stand apart in the source; their conditions may differ.

Columns and labels:
[1] = tested on: middle cerebral artery occlusion (MCAO) model in rats; assay: Influence on cerebral infarct area/volume in MCAO models of rats (TTC staining, image J); format: in vivo, Male SD rats; conditions: for average infarct area: 30 mg/kg intraperitoneal injection 15 min after ischemia, 2 hrs of cerebral infarction and 24 hrs of reperfusion, TTC staining
Method: The middle cerebral artery occlusion (MCAO) model in rats is constructed to observe the anti-cerebral ischemia of 3-n-butyl-1-isoindolinone. The MCAO model is divided into three groups: 1) a negative control group, i. e., an vegetable oil, 3 mL/kg; 2) 3-n-butyl-1-isoindolinone group, 30 mg/kg; 3) a positive control group, i. e., 3-n-butylphthalide, 30 mg/kg. All the three groups are administered via intraperitoneal injection. Male SD rats having a weight of 250 g are selected and administered 15 min after the ischemia. After 2 hrs of cerebral infarction and 24 hrs of reperfusion, brain slices are prepared and conducted with TTC staining. Software image J is used to process staining results, calculate infarct areas, and compared with the results among different groups. It is known from the results that an average infarct area of the blank group is 24.430%, the average infarct area of the 3-n-butyl-1-isoindolinone group is 14.365%, and the average infarct area of the butylphthalide group is 14.402%. […] Male SD rats having a weight of between 250 and 270 g are selected. The Male SD rats are cultivated at a room temperature of 25° C. and are forbidden from feeding food except for water 12 hrs before the operation. The MCAO models are constructed in accordance with longa method or the like. 10% chloral hydrate is used to anesthetize the rats by intraperitoneal injection with a dose of 350 mg/kg. The rat is then upwardly fixed on a rat plate in a supine position and illuminated by an incandescent lamp for maintaining a body temperature thereof at 37±0.5° C. Rat hairs at the middle position of the neck are sheared, and the skin at such position is incised after disinfection. The common carotid artery (CCA), external carotid artery (ECA), and internal carotid artery (ICA) of the right side are carefully separated. The ECA is cut, and a cut end is straightened and aligned with the ICA, and a thread is then inserted therefrom. The thread is inserted for a depth of approximately 19.0±0.5 mm. After 2 hrs, a part of the thread is pulled out to realize reperfusion. The rat after suture ligation is then put back to the rat cage. After 24 hrs of reperfusion, brain slices are prepared for staining. The rats are divided into three groups with 10 in each group: 1) a blank control group, i. e., an vegetable oil, 3 mL/kg; 2) 3-n-butyl-1-isoindolinone group, 30 mg/kg; 3) a positive control group, i. e., 3-n-butylphthalide, 30 mg/kg. All the three groups are administered with drugs via intraperitoneal injection 15 min after modeling. After 24 hrs of reperfusion, brains are collected from killed rats and placed in Petri dishes. The brain tissues are quickly collected and placed in a refrigerator at a temperature of −20° C. for 20 min and taken out. The olfactory bulb, the cerebellum, and the lower brainstem are removed, and the remaining brain is then cut for five times with an interval of 2 mm, whereby six consecutive coronal brain slices are formed. 2% TTC dye solution is added to the Petri dishes to submerge the brain slice by the solution. The Petri dishes are placed at the temperature of 37° C. and incubated in the absence of light for between 25 and 30 min during which the brain slices are turned over once every 5 min. After TTC staining of the brain slices, a normal tissue thereof presents red and an ischemic region presents white. When the TTC staining is finished, the TTC dye solution is removed out of the Petri dishes by syringes. Formalin solution with an amount enabling to submerge the brain slices is then added, and the Petri dishes are placed in the dark. After 24 hrs, solidified brain slices are taken out and arranged in order in a blue background to take pictures. […]

[2] = tested on: middle cerebral artery occlusion (MCAO) model in rats; assay: Neurobehavioral assessment (Zea Longa) in MCAO models of rats; format: in vivo, Male SD rats; conditions: score after 24 hrs of reperfusion; for alleviation of the neurobehavior compared with the blank control group (ANOVA): 30 mg/kg i.p.
Method: Male SD rats having a weight of between 250 and 270 g are selected. The Male SD rats are cultivated at a room temperature of 25° C. and are forbidden from feeding food except for water 12 hrs before the operation. The MCAO models are constructed in accordance with longa method or the like. 10% chloral hydrate is used to anesthetize the rats by intraperitoneal injection with a dose of 350 mg/kg. The rat is then upwardly fixed on a rat plate in a supine position and illuminated by an incandescent lamp for maintaining a body temperature thereof at 37±0.5° C. Rat hairs at the middle position of the neck are sheared, and the skin at such position is incised after disinfection. The common carotid artery (CCA), external carotid artery (ECA), and internal carotid artery (ICA) of the right side are carefully separated. The ECA is cut, and a cut end is straightened and aligned with the ICA, and a thread is then inserted therefrom. The thread is inserted for a depth of approximately 19.0±0.5 mm. After 2 hrs, a part of the thread is pulled out to realize reperfusion. The rat after suture ligation is then put back to the rat cage. After 24 hrs of reperfusion, brain slices are prepared for staining.
The rats are divided into three groups with 10 in each group: 1) a blank control group, i. e., an vegetable oil, 3 mL/kg; 2) 3-n-butyl-1-isoindolinone group, 30 mg/kg; 3) a positive control group, i. e., 3-n-butylphthalide, 30 mg/kg. All the three groups are administered with drugs via intraperitoneal injection 15 min after modeling.
According to Zea Longa assessment, ethology observation is conducted after 2 hrs of modeling and 24 hrs of reperfusion and before killing the rats. The tail of the rat is seized to lift the rat about 1 foot off the ground to observe the condition of the left forelimb. […]
After 24 hrs of reperfusion of the MCAO models of the rats, the neurobehavioral assessment is conducted on the rats again, and the results are recorded.

[3] = background statement; oily liquid; cited from earlier work
[4] = 30 mg/kg i.p., 2 hrs MCAO, 24 hrs reperfusion

Structure (SMILES) | infarct volume reduced compared with the solvent control group [1, 4] [%] | reduced infarct area compared with the blank control group (one-factor ANOVA) [1, 4] | average infarct area [1] [%] | reduced infarct area, difference compared with butylphthalide (one-factor ANOVA) ([1]; both 30 mg/kg i.p., 2 hrs MCAO, 24 hrs reperfusion) | alleviation of the neurobehavior compared with the blank control group (ANOVA) [2] | alleviation of the neurobehavior compared with the butylphthalide group (ANOVA) ([2]; both 30 mg/kg i.p.) | water solubility [3]
CCCCC1NC(=O)c2ccccc21 (stereo not shown) [3-n-butyl-1-isoindolinone] | 41.199 | significant difference (P<0.001) | 14.365 | no significant statistical difference; also recorded: no statistical significance (P=0.989) | significant difference (P=0.003<0.01) | no significant difference (P=0.384>0.05) | 
CCCCC1OC(=O)c2ccccc21 (stereo not shown) [butylphthalide, 3-n-butylphthalide, reference compound] |  | significant difference (P<0.01) | 14.402 |  | significant difference |  | water insoluble
